Laboratory results: ChEMBL document CHEMBL5329208 (RSC Med Chem, 2023)

Experiments:
[1] = Cytotoxicity against human HePAD38 cells assessed as reduction in cell viability by CCK-8 assay; format: toxicity, cell-based
[2] = Selectivity index, ratio of CC50 for cytotoxicity against human HePAD38 cells assessed as reduction in cell viability to EC50 for antiviral activity against HBV infected human HePAD38 cells assessed as reduction of HBV DNA level; format: toxicity, cell-based; conditions: read-out: Ratio CC50/EC50
Hepatitis B virus = test: Antiviral activity against HBV infected human HePAD38 cells assessed as reduction of HBV DNA level with compound replacement for every 3 days and measured on day 6 by qPCR analysis; format: functional, organism-based
hERG (KCNH2) = hERG (KCNH2) (Homo sapiens, UniProt Q12809); test: Inhibition of hERG expressed in HEK293 cells at 1 uM at holding potential of -80 mV by whole cell patch clamp assay relative to control; format: toxicity, cell-based; conditions: HEK293 cells expressing hERG
Sequence of hERG (KCNH2) (Q12809 whole entry): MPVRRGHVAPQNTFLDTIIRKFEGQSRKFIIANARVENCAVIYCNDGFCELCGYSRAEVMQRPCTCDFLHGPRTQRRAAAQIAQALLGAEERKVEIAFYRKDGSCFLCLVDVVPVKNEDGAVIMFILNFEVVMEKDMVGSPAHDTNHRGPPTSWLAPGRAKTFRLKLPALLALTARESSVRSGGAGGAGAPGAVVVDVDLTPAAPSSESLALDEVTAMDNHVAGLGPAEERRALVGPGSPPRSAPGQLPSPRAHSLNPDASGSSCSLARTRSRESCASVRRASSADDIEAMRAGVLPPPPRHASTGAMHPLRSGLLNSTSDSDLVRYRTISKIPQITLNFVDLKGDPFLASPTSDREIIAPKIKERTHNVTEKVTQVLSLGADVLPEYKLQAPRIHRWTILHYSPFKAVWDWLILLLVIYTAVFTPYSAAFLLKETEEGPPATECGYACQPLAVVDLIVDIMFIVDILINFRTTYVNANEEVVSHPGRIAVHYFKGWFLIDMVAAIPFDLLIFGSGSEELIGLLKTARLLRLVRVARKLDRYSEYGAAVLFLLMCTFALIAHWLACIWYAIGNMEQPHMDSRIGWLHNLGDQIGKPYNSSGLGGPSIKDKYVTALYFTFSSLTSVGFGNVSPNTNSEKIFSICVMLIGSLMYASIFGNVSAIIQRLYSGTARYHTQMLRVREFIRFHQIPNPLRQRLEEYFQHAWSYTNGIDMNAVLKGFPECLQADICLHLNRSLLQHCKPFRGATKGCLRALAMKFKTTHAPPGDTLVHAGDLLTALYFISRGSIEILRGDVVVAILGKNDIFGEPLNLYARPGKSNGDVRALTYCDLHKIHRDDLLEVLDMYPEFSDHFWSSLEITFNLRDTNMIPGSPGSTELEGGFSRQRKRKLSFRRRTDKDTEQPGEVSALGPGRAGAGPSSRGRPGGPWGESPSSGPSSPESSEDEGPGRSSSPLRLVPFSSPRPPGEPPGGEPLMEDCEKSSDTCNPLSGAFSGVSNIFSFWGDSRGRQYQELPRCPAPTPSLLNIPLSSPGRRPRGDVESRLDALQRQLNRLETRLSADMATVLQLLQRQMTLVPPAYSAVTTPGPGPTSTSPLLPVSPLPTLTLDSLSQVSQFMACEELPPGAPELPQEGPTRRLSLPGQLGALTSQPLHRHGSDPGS

[3] = Metabolic stability in human liver assessed as intrinsic clearance preincubated for 10 mins followed by NADPH addition and measured after 60 mins by LC-MS/MS analysis; format: ADME, tissue-based; conditions: time 70 min, read-out: CLH
[4] = Metabolic stability in human liver microsome assessed as intrinsic clearance preincubated for 10 mins followed by NADPH addition and measured after 60 mins by LC-MS/MS analysis; format: ADME; conditions: liver microsomes, time 70 min, read-out: CLH
[5] = Metabolic stability in human liver microsome assessed as half life preincubated for 10 mins followed by NADPH addition and measured after 60 mins by LC-MS/MS analysis; format: ADME; conditions: liver microsomes, time 70 min

SMILES: CCOC(=O)C1=C(CN2CCN(C(C(=O)O)c3ccccc3O)CC2)NC(c2nccs2)=NC1c1ccc(F)cc1Br (stereo not given)
- CC50 [1]: 22.4 µM
- selectivity ratio [2]: 3.4
- EC50 (Hepatitis B virus): 6.48 µM

SMILES: COc1cc(N)c(Cl)cc1C(=O)NC1CCN(CCCOc2ccc(F)cc2)CC1OC (stereo not given) [CISAPRIDE]
- inhibition at 1 µM (hERG (KCNH2)): 96.7%

SMILES: CCOC(=O)C1=C(CN2CCN(C(C(=O)O)C3=CCCCC3)CC2)NC(c2nccs2)=NC1c1ccc(F)cc1Br (stereo not given)
- CC50 [1]: 29.2 µM
- selectivity ratio [2]: 34.8
- EC50 (Hepatitis B virus): 0.84 µM

SMILES: CCOC(=O)C1=C(CN2CCN(C(C(=O)O)c3ccoc3)CC2)NC(c2nccs2)=NC1c1ccc(F)cc1Br (stereo not given)
- CC50 [1]: > 50 µM
- EC50 (Hepatitis B virus): > 10 µM

SMILES: CCOC(=O)C1=C(CN2CCN(C(C(=O)O)c3ccccc3C)CC2)NC(c2nccs2)=NC1c1ccc(F)cc1Br (stereo not given)
- CC50 [1]: 22.4 µM
- selectivity ratio [2]: 30.2
- EC50 (Hepatitis B virus): 0.58 µM

SMILES: CCOC(=O)C1=C(CN2CCN(C(C(=O)O)c3cccc(C)c3)CC2)NC(c2nccs2)=NC1c1ccc(F)cc1Br (stereo not given)
- CC50 [1]: 22.4 µM
- selectivity ratio [2]: 8.9
- EC50 (Hepatitis B virus): 2.52 µM

SMILES: CCOC(=O)C1=C(CN2CCN(C(C(=O)O)c3ccccc3)CC2)NC(c2nccs2)=NC1c1ccc(F)cc1Br (stereo not given)
- CC50 [1]: > 50 µM
- selectivity ratio [2]: > 18.6
- EC50 (Hepatitis B virus): 2.69 µM

SMILES: CCOC(=O)C1=C(CN2CCN(C(C(=O)O)c3ccc(C)cc3)CC2)NC(c2nccs2)=NC1c1ccc(F)cc1Br (stereo not given)
- CC50 [1]: 22.4 µM
- selectivity ratio [2]: 2.6
- EC50 (Hepatitis B virus): 8.48 µM

SMILES: CCOC(=O)C1=C(CN2CCN(C(C(=O)O)c3ccsc3)CC2)NC(c2nccs2)=NC1c1ccc(F)cc1Br (stereo not given)
- CC50 [1]: > 50 µM
- selectivity ratio [2]: 962
- EC50 (Hepatitis B virus): 0.07 µM

SMILES: CCOC(=O)C1=C(CN2CCN(C(C(=O)O)c3cccc(F)c3)CC2)NC(c2nccs2)=NC1c1ccc(F)cc1Br (stereo not given)
- CC50 [1]: 22.4 µM
- selectivity ratio [2]: < 2.2
- EC50 (Hepatitis B virus): > 10 µM

SMILES: CCOC(=O)C1=C(CN2CCN(C(C(=O)O)c3ccc4c(c3)OCO4)CC2)NC(c2nccs2)=NC1c1ccc(F)cc1Br (stereo not given)
- CC50 [1]: 22.4 µM
- selectivity ratio [2]: 9.1
- EC50 (Hepatitis B virus): 2.46 µM

SMILES: CCOC(=O)C1=C(CN2CCN(C(C(=O)O)c3ccccc3OC)CC2)NC(c2nccs2)=NC1c1ccc(F)cc1Br (stereo not given)
- CC50 [1]: 50 µM
- selectivity ratio [2]: 21.3
- EC50 (Hepatitis B virus): 2.35 µM

SMILES: C[C@]12CC[C@H]3[C@@H](CCC4=CC(=O)CC[C@@]43C)[C@@H]1CC[C@@H]2O [TESTOSTERONE]
- CLint scaled [3]: 117 mL/min/kg
- microsomal CLint [4]: 130 µL/min/mg
- half-life [5]: 10.7 min

SMILES: CCOC(=O)C1=C(CN2CCN(C(C(=O)O)c3ccc4c(c3)OCCO4)CC2)NC(c2nccs2)=NC1c1ccc(F)cc1Br (stereo not given)
- CC50 [1]: 22.4 µM
- selectivity ratio [2]: 508
- EC50 (Hepatitis B virus): 0.044 µM

SMILES: CCOC(=O)C1=C(CN2CCN(C(C(=O)O)c3cccc(C(F)F)c3)CC2)NC(c2nccs2)=NC1c1ccc(F)cc1Br (stereo not given)
- CC50 [1]: 22.4 µM
- selectivity ratio [2]: < 2.2
- EC50 (Hepatitis B virus): > 10 µM

SMILES: CCOC(=O)C1=C(CN2CCN(C(C(=O)O)c3cccc(C#N)c3)CC2)NC(c2nccs2)=NC1c1ccc(F)cc1Br (stereo not given)
- CC50 [1]: 22.4 µM
- selectivity ratio [2]: < 2.2
- EC50 (Hepatitis B virus): > 10 µM

SMILES: CCOC(=O)C1=C(CN2CCN(C(C(=O)O)c3ccc(C=O)cc3)CC2)NC(c2nccs2)=NC1c1ccc(F)cc1Br (stereo not given)
- CC50 [1]: > 50 µM
- selectivity ratio [2]: > 12.9
- EC50 (Hepatitis B virus): 3.87 µM

SMILES: CCOC(=O)C1=C(CN2CCN(C(C(=O)O)c3ccc(F)cc3)CC2)NC(c2nccs2)=NC1c1ccc(F)cc1Br (stereo not given)
- CC50 [1]: 29.2 µM
- selectivity ratio [2]: < 2.9
- EC50 (Hepatitis B virus): > 10 µM

SMILES: CCOC(=O)C1=C(CN2CCN(C(C(=O)O)c3cccc(C(F)(F)F)c3)CC2)NC(c2nccs2)=NC1c1ccc(F)cc1Br (stereo not given)
- CC50 [1]: 22.4 µM
- selectivity ratio [2]: 2.2
- EC50 (Hepatitis B virus): 9.98 µM

SMILES: CCOC(=O)C1=C(CN2CCN(C(C(=O)O)C3=CCCC3)CC2)NC(c2nccs2)=NC1c1ccc(F)cc1Br (stereo not given)
- CC50 [1]: > 50 µM
- selectivity ratio [2]: > 100
- EC50 (Hepatitis B virus): 0.5 µM

SMILES: C#Cc1cccc(C(C(=O)O)N2CCN(CC3=C(C(=O)OCC)C(c4ccc(F)cc4Br)N=C(c4nccs4)N3)CC2)c1 (stereo not given)
- CC50 [1]: 22.4 µM
- selectivity ratio [2]: < 2.2
- EC50 (Hepatitis B virus): > 10 µM

SMILES: CCOC(=O)C1=C(CN2CCN(C(C(=O)O)c3ccc(Br)cc3)CC2)NC(c2nccs2)=NC1c1ccc(F)cc1Br (stereo not given)
- CC50 [1]: 22.4 µM
- selectivity ratio [2]: 18
- EC50 (Hepatitis B virus): 1.24 µM

SMILES: CCOC(=O)C1=C(CN2CCN(C(C(=O)O)c3cccc(C=O)c3)CC2)NC(c2nccs2)=NC1c1ccc(F)cc1Br (stereo not given)
- CC50 [1]: > 50 µM
- selectivity ratio [2]: 2440
- EC50 (Hepatitis B virus): > 10 µM

SMILES: O=C(O)Cc1ccccc1Nc1c(Cl)cccc1Cl [DICLOFENAC]
- CLint scaled [3]: 212 mL/min/kg
- microsomal CLint [4]: 235 µL/min/mg

SMILES: CCOC(=O)C1=C(CN2CCN(C(C(=O)O)c3ccc(O)cc3)CC2)NC(c2nccs2)=NC1c1ccc(F)cc1Br (stereo not given)
- CC50 [1]: 22.4 µM
- selectivity ratio [2]: 3.5
- EC50 (Hepatitis B virus): 6.3 µM

SMILES: CCOC(=O)C1=C(CN2CCN(C(C(=O)O)c3ccccc3C#N)CC2)NC(c2nccs2)=NC1c1ccc(F)cc1Br (stereo not given)
- CC50 [1]: 50 µM
- selectivity ratio [2]: 9.3
- EC50 (Hepatitis B virus): 5.36 µM

SMILES: C=Cc1ccc(C(C(=O)O)N2CCN(CC3=C(C(=O)OCC)C(c4ccc(F)cc4Br)N=C(c4nccs4)N3)CC2)cc1 (stereo not given)
- CC50 [1]: 22.4 µM
- selectivity ratio [2]: 5.9
- EC50 (Hepatitis B virus): 3.78 µM

SMILES: CCOC(=O)C1=C(CN2CCN(C(C(=O)O)c3ccc(Cl)cc3)CC2)NC(c2nccs2)=NC1c1ccc(F)cc1Br (stereo not given)
- CC50 [1]: 22.4 µM
- selectivity ratio [2]: 57.3
- EC50 (Hepatitis B virus): 0.39 µM

SMILES: CCOC(=O)C1=C(CN2CCN(C(C(=O)O)c3ccc(C#N)cc3)CC2)NC(c2nccs2)=NC1c1ccc(F)cc1Br (stereo not given)
- CC50 [1]: 29.2 µM
- selectivity ratio [2]: 6.8
- EC50 (Hepatitis B virus): 4.31 µM

SMILES: CCOC(=O)C1=C(CN2CCN(C(C(=O)O)c3cccc4ccccc34)CC2)NC(c2nccs2)=NC1c1ccc(F)cc1Br (stereo not given)
- CC50 [1]: 22.4 µM
- selectivity ratio [2]: 26.3
- EC50 (Hepatitis B virus): 0.85 µM

SMILES: CCOC(=O)C1=C(CN2CCN(C(C(=O)O)c3ccc(CC)cc3)CC2)NC(c2nccs2)=NC1c1ccc(F)cc1Br (stereo not given)
- CC50 [1]: 22.4 µM
- selectivity ratio [2]: 41.4
- EC50 (Hepatitis B virus): 0.46 µM

SMILES: CCOC(=O)C1=C(CN2CCN(C(C(=O)O)c3ccc(OC)cc3)CC2)NC(c2nccs2)=NC1c1ccc(F)cc1Br (stereo not given)
- CC50 [1]: 29.2 µM
- selectivity ratio [2]: < 2.9
- EC50 (Hepatitis B virus): > 10 µM

SMILES: CCOC(=O)C1=C(CN2CCN(C(C(=O)O)c3cccc(O)c3)CC2)NC(c2nccs2)=NC1c1ccc(F)cc1Br (stereo not given)
- CC50 [1]: > 50 µM
- selectivity ratio [2]: > 21
- EC50 (Hepatitis B virus): 2.38 µM

SMILES: CCOC(=O)C1=C(CN2CCN(C(C(=O)O)c3ccc4occc4c3)CC2)NC(c2nccs2)=NC1c1ccc(F)cc1Br (stereo not given)
- CC50 [1]: 22.4 µM
- selectivity ratio [2]: 9.8
- EC50 (Hepatitis B virus): 2.28 µM

SMILES: CCOC(=O)C1=C(CN2CCN(C(C(=O)O)c3ccc(OC)c(OC)c3)CC2)NC(c2nccs2)=NC1c1ccc(F)cc1Br (stereo not given)
- CC50 [1]: > 50 µM
- EC50 (Hepatitis B virus): > 10 µM
